Non-standard residues stand in square brackets, D forms with d. Residues, ends and D or L forms follow the SMILES beside them. *: point of attachment. Leu(ol) = CC(C)C[C@H](N)CO; Cbz = O=C(OCc1ccccc1)*; Boc = CC(C)(C)OC(=O)*
Molecule COC(C(=O)O)c1ccc2nc(-c3ccc(Cl)cc3)oc2c1 (centres undefined) has a melting point of 164 to 166 °C.
CC1CCc2c(N3CCN(S(=O)(=O)C(F)(F)F)CC3)c(Cl)cc3c(=O)c(C(=O)O)cn1c23 (centres undefined) gave a melting point of 232 to 235 °C.
For CCCCC(CC)(C(=O)O)C(=O)O, the melting point was 161 to 170 °C.
Cc1c(-c2ccc(Cl)cc2)ccc2nc(C(=O)NC(Cc3ccc(OCc4ccccc4)cc3)C(=O)O)cn12 (centres undefined) gave a melting point of 263 to 264 °C.
Molecule CNC(=O)c1cccc(F)c1Nc1nc(Nc2ccc3c(c2)N(CCOC)C(=O)CCC3)ncc1Br has a melting point of 211 to 224 °C.
C=CCn1c(NCC(F)(F)F)nc(N2CCc3ccccc3CC2)c(C#N)c1=O showed a melting point of 186 to 191 °C.
With O=C(O)c1sc(-c2cccnc2)nc1Cl the melting point was 238 to 251 °C.
CCC1C(=O)Oc2c(Oc3ccccc3Cl)cccc21 (centres undefined) gave a melting point of 78 to 79 °C.
N#CC(Nc1cc(Cl)c(Cl)cc1Cl)c1ccccc1 (centres undefined) gave a melting point of 124 °C.
Work on CC(=O)OC[C@@H]1O[C@H](n2c(NC(C)C)nc3c(Cl)cccc32)[C@@H](OC(C)=O)[C@H]1OC(C)=O yielded a melting point of 225 to 227 °C.
Molecule CCCCn1c(=O)c2[nH]cnc2n(CCCC)c1=O has a melting point of 166 to 169 °C.
Work on CC(NC(=O)OCc1ccccc1)C(=O)NC(C(=O)NC(CCCCNC(=O)OC(C)(C)C)C(N)=O)C(C)C (stereo not drawn) (Cbz-Ala-Val-Lys(Boc)-NH2; configuration not given here) yielded a melting point of 214 to 217 °C.
CN1CC(CCN2CCN(c3ccc(Cl)c(Cl)c3)CC2)OC1=O (centres undefined) gave a melting point of 89 to 91 °C.
For OC[C@H]1C[C@@H](n2cnc3cc(Cl)c(Cl)cc32)[C@H](O)[C@@H]1O, the melting point was 222 to 225 °C.
With COc1ccc(N=C(C#Cc2ccccc2)N2CCN(Cc3ccc(F)cc3)CC2)cc1 the melting point was 98 °C.
For O=C(NCC1Cc2cccc(-c3ccc(F)cc3F)c2O1)OCc1ccccc1 (centres undefined), the melting point was 78 to 80 °C.
CON=C(C(=O)OC)c1csc(NC(=O)CCl)n1 showed a melting point of 131 °C.
For CN1Cc2ccccc2C(c2ccccc2)N=C1Cc1ccc(NS(C)(=O)=O)cc1 (centres undefined), the melting point was 182 to 185 °C.
For CC(C)(C)OC(=O)N1CC(CCl)c2c1ccc1ccc(S(=O)(=O)N(Cc3ccccc3)Cc3ccccc3)cc21 (centres undefined), the melting point was 131 to 133 °C.
With Cc1c(/C=N/OCCCOc2ccc(CC(=O)O)cc2)c2ccccc2n1C the melting point was 106 to 108 °C.
Work on CN1C(=O)CC[C@]2(C)c3ccc(-c4cccc5ccccc45)cc3CC[C@@H]12 yielded a melting point of 159 °C.
CC(C)C[C@@H](CO)NC(=O)[C@H](Cc1c[nH]cn1)NC(=O)[C@H](Cc1ccccc1)NC(=O)OCc1ccccc1 (Cbz-Phe-His-[Leu(ol)]) showed a melting point of 181 to 183 °C.
Molecule CCOC(=O)c1ccc(C(=O)Sc2cccn3c(=O)c(C(=O)OCC)cnc23)cc1 has a melting point of 146 to 148 °C.
Molecule CCOC(=O)C(=O)Nc1cc(C(=O)O)ccc1O has a melting point of over 300 °C.
With CCOC(=O)C1=C(Cl)/C(=N/OS(C)(=O)=O)CC(c2ccc(Cl)cc2F)N1 (centres undefined) the melting point was 63 to 64 °C.
Molecule O=C(OCc1ccccc1)C1Cc2ccsc2CN1Cc1ccccc1 (centres undefined) has a melting point of 135 to 140 °C.
Molecule CCCCC(CC)C(=O)Nc1ccc2ccn(Cc3ccc(C(=O)OC)c4ccoc34)c2c1 (centres undefined) has a melting point of 164 to 167 °C.
Molecule O=[N+]([O-])c1ccc(Oc2cc(Cl)ncn2)cc1 has a melting point of 125 to 127 °C.
In the case of CCOC(=O)NNc1ccc(N(C)CC(C)O)nn1 (centres undefined), the melting point is reported as 150 to 152 °C.
For CCCCc1ccc(C(=O)Nc2ccc3cc(CN4CCCC4)cnc3c2C)cc1, the melting point was 131 °C.
Molecule COC(=O)Nc1cn2cc(S(=O)(=O)c3ccccc3)ccc2n1 has a melting point of 300 °C.
CC(=O)N[C@H]1CC[C@H](Nc2nccc(-n3nnc4ccccc43)n2)CC1 showed a melting point of 287 to 288 °C.
Molecule Cc1ccc(S(=O)(=O)OCCCn2c(=NC(=O)C(F)(F)F)sc3cc(OC(F)(F)F)ccc32)cc1 has a melting point of 139 °C.
In the case of Cc1cc(SCCC#Cc2ccc(C(F)(F)F)cc2)ccc1OCC(=O)O, the melting point is reported as 129 to 130 °C.
In the case of Cc1cc2c(cc1F)C(C)(C)CCC2(C)C, the melting point is reported as 90 to 91.8 °C.
Work on CC(=O)N1CCc2cc(C(=O)CN(Cc3ccccc3)Cc3ccccc3)ccc21 yielded a melting point of 130 °C.
For CNc1nc(-n2cc(C(=O)O)c(=O)c3cc(F)c(F)c(Cl)c32)c(F)cc1F, the melting point was 236 to 242 °C.
Molecule O=P1(O)Oc2ccccc2-c2cc(F)ccc21 has a melting point of 240 °C.
In the case of Cc1nc2ncnn2c2c1CCN2c1c(Cl)cccc1Cl, the melting point is reported as 192 to 194 °C.
Molecule CC(O)(CCCC(F)(F)C(F)(F)C(F)(F)C(F)(F)C(F)(F)C(F)(F)F)CCCC(F)(F)C(F)(F)C(F)(F)C(F)(F)C(F)(F)C(F)(F)F has a melting point of 46 to 47 °C.
CCCN(c1cccc2cc(-c3nccs3)[nH]c12)S(=O)(=O)c1cccs1 gave a melting point of 130 to 131 °C.
With CCCc1nc(C(C)(O)CC)c(C(=O)O)n1Cc1ccc(-c2ccccc2-c2nnn[nH]2)cc1 (centres undefined) the melting point was 174 to 177 °C.
Molecule COc1cc(Nc2c(C#N)cnc3cc4cc(OC)c(OCCCl)cc4cc23)c(Cl)cc1F has a melting point of 193 to 204 °C.
O=C1NC2CCC1C(O)C2 (centres undefined) showed a melting point of 115 to 120 °C.
In the case of CS(=O)(=O)CCOC(=O)NCCSc1ccc2nccn2n1, the melting point is reported as 91 to 93 °C.
For CCC(=NO)c1ccc(OCCCCCCCc2cc(C)no2)cc1, the melting point was 88 to 89 °C.
In the case of COc1nc2cc(Cl)c(Cl)c(N)c2nc1OC, the melting point is reported as 182 to 184 °C.
COc1cc(OC(C)C)cc2oc(C)cc(=S)c12 gave a melting point of 113 to 114 °C.
In the case of Cc1ccc(C(=C2CN(C(c3ccccc3)c3ccccc3)C2)S(C)(=O)=O)cc1, the melting point is reported as 210 °C.
